The values that follow come from patent US11890288B2, “Sulfonamide or sulfinamide compound having effect of inducing BRD4 protein degradation and pharmaceutical use thereof” (MITSUBISHI TANABE PHARMA CORPORATION, priority 2020, dated 2024).

The IC50 is the midpoint of a concentration-inhibition curve. What is called DC50 is the midpoint of the concentration-degradation curve.

Test [1] relates to human prostate cancer LNCaP cells. Put plainly: Cytotoxic action on LNCaP cells (WST-8, 96 hr). The class given is cell-based. Conditions: 96 hr culture. As to the method:
The cytotoxic action of the compound of the present invention against human cancer cells was evaluated in vitro. In this experiment, (+)-JQ1 (Nature volume 468, pages 1067-1073 (23 Dec. 2010)) known to have an inhibitory activity on the binding of BRD4 protein and a ligand therefor was used as a positive control drug. Respective cells were suspended in 10% FBS/RPMI1640, seeded in a 96 well plate and cultured at 5% CO2, 37° C. overnight. A test compound dissolved in DMSO was diluted with 10% FBS/RPMI1640 and added and the cells were further cultured for 96 hr. After culturing, the viable cell number was measured using a cell number measurement WST-8 kit (Kishida Chemical Co., Ltd.). As a control, the measurement was performed under conditions free of the test compound. The cytotoxic activity of the compound of the present invention against human prostate cancer LNCaP cells is shown in IC50 value in Table 1. The IC50 value is a concentration of the compound showing 50% cell survival rate when the cell survival rate thereof under compound untreated condition is 100%. It was calculated from the straight line connecting the cell survival rate at two points enclosing the 50% cell survival rate and the compound concentration. In addition, the cytotoxic activity against respective cancer cells of human acute myeloid leukemia MV-4-11 cell, human chronic myeloid leukemia K562 cell, human multiple myeloma MM.1S cell, human diffuse large B-cell lymphoma SU-DHL-6 cell, human T-cell leukemia Jurkat cells, human Burkitt lymphoma Raji cell, human castration-resistant prostate cancer PC-3 cell, human AR-V7 positive castration-resistant prostate cancer 22Rv1 cell, human ovarian cancer A2780 cell, human cisplatin-resistant ovarian cancer SK-OV-03 cell, human bladder cancer 5637 cell, human breast cancer ZR-75-1 cell, human triple negative breast cancer MDA-MB-231 cell, human uterus cervix cancer HeLa cell, human uterine sarcoma MES-SA cell, human stomach cancer SNU-16 cell, human non-small cell lung cancer NCI-H2126 cell, human EGFRT790M mutation-positive non-small cell lung cancer NCI-H1975 cell, human small cell lung cancer NCI-H82 cell, human large cell lung cancer NCI-H460 cell, human colon cancer HCT116 cell, human glioma U-87 MG cell, human pancreatic cancer BxPC-3 cell, human liver cancer HLF cell, human bile duct cancer HuCCT1 cell, human renal cell cancer 786-O cell, and human fibrosarcoma HT1080 cell is shown in IC50 value in Table 2.
Background: Formazan colour is commonly taken as a measure of viable cells.

In test [2] the target is BRD4 protein (Homo sapiens (Human), UniProt O60885). Put plainly: BRD4 protein degradation inducing action in LNCaP cells (immunofluorescence, 6 hr). The note with it: anti-BRD4 fluorescence intensity. The test is classed as cell-based. How it is done:
The degradation inducing action of the compound of the present invention on BRD4 proteins in cancer cells was evaluated in vitro using human prostate cancer LNCaP cells. LNCaP cells were suspended in 10% FBS/RPMI1640, seeded in a 96 well Cell carrier plate (Perkin Elmer) and cultured at 5% CO2, 37° C. overnight. A test compound dissolved in DMSO was diluted with 10% FBS/RPMI1640 and added and the cells were further cultured for 6 hr. After culturing, the cells were immobilized with 4% para-formaldehyde/PBS and further subjected to a permeation treatment with 0.25% Triton X-100/PBS. Thereafter, the cells were blocked with 10% BSA/PBS, Anti-BRD4 (Sigma-Aldrich) solution was added and the cells were incubated at 4° C. overnight. Furthermore, Goat anti-Rabbit IgG(H+L) Cross-Adsorbed Secondary Antibody, Alexa Fluor 546 (Thermo Fisher Scientific) solution, 0.5 μg/mL Hoechst 33342 (Sigma-Aldrich), and 14 μM Acti-Stain 555 Fluorescent Phalloidin (Cytoskeleton) were added. After incubation for 1 hr, BRD4 protein amount was measured by Operetta (Perkin Elmer) as fluorescence intensity (excitation: 560 nm, emission: 572 nm). The BRD4 protein degradation inducing activity of the compound of the present invention in LNCaP cells is shown in DC50 value in Table 3. The DC50 value is a concentration of the compound showing 50% fluorescence intensity when the fluorescence intensity thereof under compound untreated condition is 100%. It was calculated from the straight line connecting the fluorescence intensity at two points enclosing the 50% fluorescence intensity and the compound concentration.

Consider `COC(=O)C[C@@H]1N=C(c2ccc(-c3cnc(C(=O)NCc4ccc(S(=O)(=O)Nc5ccc(C)c6c(C#N)c[nH]c56)cc4)nc3)cc2)c2c(sc(C)c2C)-n2c(C)nnc21` [Example Compound 146, methyl [(6S)-4-(4-{2-[({4-[(3-cyano-4-methyl-1H-indol-7-yl)sulfamoyl]phenyl}methyl)carbamoyl]pyrimidin-5-yl}phenyl)-2,3,9-trimethyl-6H-thieno[3,2-f][1,2,4]triazolo[4,3-a][1,4]diazepin-6-yl]acetate], for which half-maximal inhibition in test [1] (IC50) required 1.3 nM. This molecule registered a DC50 in test [2] of 0.26 nM.

Regarding `CCc1ccc(NS(=O)(=O)c2ccc(CCNC(=O)c3cnc(-c4ccc(C5=N[C@@H](CC(=O)OC)c6nnc(C)n6-c6sc(C)c(C)c65)cc4)cn3)cc2)c2[nH]cc(C#N)c12` [Example 107, methyl [(6S)-4-(4-{5-[(2-{4-[(3-cyano-4-ethyl-1H-indol-7-yl)sulfamoyl]phenyl}ethyl)carbamoyl]pyrazin-2-yl}phenyl)-2,3,9-trimethyl-6H-thieno[3,2-f][1,2,4]triazolo[4,3-a][1,4]diazepin-6-yl]acetate], half-maximal inhibition in test [1] (IC50) was put at 0.26 nM. Besides, the DC50 in test [2] was 0.046 nM.

In turn, `Cc1sc2c(c1C)C(c1ccc(-c3cc(F)c(C(=O)NCc4ccc(S(=O)(=O)Nc5ccc(C)c6c(C#N)c[nH]c56)cc4)c(Cl)c3)cc1)=N[C@@H](C)c1nnc(C)n1-2` [Example 72, 3-chloro-N-({4-[(3-cyano-4-methyl-1H-indol-7-yl)sulfamoyl]phenyl}methyl)-5-fluoro-4′-[(6S)-2,3,6,9-tetramethyl-6H-thieno[3,2-f][1,2,4]triazolo[4,3-a][1,4]diazepin-4-yl][1,1′-biphenyl]-4-carboxamide] came in with an IC50 in test [1] of 5.5 nM. This molecule also returned a DC50 in test [2] of 65 nM.

`Cc1sc2c(c1C)C(c1ccc(-c3ccc(C(=O)NCc4ccc(S(=O)(=O)Nc5ccc(C)c6c(C#N)c[nH]c56)cc4)nn3)cc1)=N[C@@H](CC(=O)OC(C)(C)C)c1nnc(C)n1-2` [Example Compound 150, t-butyl [(6S)-4-(4-{6-[({4-[(3-cyano-4-methyl-1H-indol-7-yl)sulfamoyl]phenyl}methyl)carbamoyl]pyridazin-3-yl}phenyl)-2,3,9-trimethyl-6H-thieno[3,2-f][1,2,4]triazolo[4,3-a][1,4]diazepin-6-yl]acetate]: the midpoint of inhibition in test [1], the IC50, lay at 0.43 nM. The DC50 in test [2] came out at 0.12 nM.

With `COC(=O)C[C@@H]1N=C(c2ccc(-c3ccc(C(=O)NCc4ccc(S(=O)(=O)Nc5ccc(C)c6c(C#N)c[nH]c56)cc4)cc3F)cc2)c2c(sc(C)c2C)-n2c(C)nnc21` [Example 45, methyl [(6S)-4-{4′-[({4-[(3-cyano-4-methyl-1H-indol-7-yl)sulfamoyl]phenyl}methyl)carbamoyl]-2′-fluoro[1,1′-biphenyl]-4-yl}-2,3,9-trimethyl-6H-thieno[3,2-f][1,2,4]triazolo[4,3-a][1,4]diazepin-6-yl]acetate], the IC50 in test [1] was determined as 0.22 nM. This molecule yielded a DC50 in test [2] of 0.19 nM.

In test [1], `COC(=O)C[C@@H]1N=C(c2ccc(-c3cnc(C(=O)NCCc4ccc(S(=O)(=O)Nc5ccc(C)c6c(C#N)c[nH]c56)cc4)cn3)cc2)c2c(sc(C)c2C)-n2c(C)nnc21` [Example 102, methyl [(6S)-4-(4-{5-[(2-{4-[(3-cyano-4-methyl-1H-indol-7-yl)sulfamoyl]phenyl}ethyl)carbamoyl]pyrazin-2-yl}phenyl)-2,3,9-trimethyl-6H-thieno[3,2-f][1,2,4]triazolo[4,3-a][1,4]diazepin-6-yl]acetate] came in with an IC50 of 0.071 nM. In test [2], this molecule showed a DC50 of 0.036 nM.

Regarding `CCc1ccc(NS(=O)(=O)c2ccc([C@@H](C)NC(=O)c3ccc(-c4ccc(C5=N[C@@H](CC(=O)OC)c6nnc(C)n6-c6sc(C)c(C)c65)cc4)c(F)c3)cc2)c2[nH]cc(C#N)c12` [Example Compound 121, methyl [(6S)-4-(4′-{[(1R)-1-{4-[(3-cyano-4-ethyl-1H-indol-7-yl)sulfamoyl]phenyl}ethyl]carbamoyl}-2′-fluoro[1,1′-biphenyl]-4-yl)-2,3,9-trimethyl-6H-thieno[3,2-f][1,2,4]triazolo[4,3-a][1,4]diazepin-6-yl]acetate], the IC50 in test [1] worked out at 0.22 nM. For the same molecule, the DC50 in test [2] was 0.17 nM.

`COc1ccc2c(c1)C(c1ccc(-c3ccc(C(=O)NCc4ccc(S(=O)(=O)Nc5ccc(C)c6c(C#N)c[nH]c56)cc4)cc3)cc1)=N[C@@H](CC(=O)OC(C)(C)C)c1nnc(C)n1-2` [Example Compound 132, t-butyl [(4S)-6-{4′-[({4-[(3-cyano-4-methyl-1H-indol-7-yl)sulfamoyl]phenyl}methyl)carbamoyl][1,1′-biphenyl]-4-yl}-8-methoxy-1-methyl-4H-[1,2,4]triazolo[4,3-a][1,4]benzodiazepin-4-yl]acetate] displayed an IC50 in test [1] of 0.21 nM. Also, the DC50 in test [2] was determined as 0.13 nM.

For the molecule `Cc1sc2c(c1C)C(c1ccc(-c3ccc(C(=O)NCCc4ccc(S(=O)(=O)Nc5ccc(C)c6c(C#N)c[nH]c56)cc4)cc3)cc1)=N[C@@H](CC(=O)OC(C)(C)C)c1nnc(C)n1-2` [Example 64, t-butyl [(6S)-4-{4′-[(2-{4-[(3-cyano-4-methyl-1H-indol-7-yl)sulfamoyl]phenyl}ethyl)carbamoyl][1,1′-biphenyl]-4-yl}-2,3,9-trimethyl-6H-thieno[3,2-f][1,2,4]triazolo[4,3-a][1,4]diazepin-6-yl]acetate], half-maximal inhibition in test [1] (IC50) required 0.25 nM. For the same molecule, half-maximal degradation in test [2] (DC50) was put at 0.13 nM.

In the case of `CCc1ccc(NS(=O)(=O)c2ccc([C@@H](C)NC(=O)c3ccc(-c4ccc(C5=N[C@@H](CC(=O)OC)c6nnc(C)n6-c6sc(C)c(C)c65)cc4)cc3C)cc2)c2[nH]cc(C#N)c12` [Example Compound 123, methyl [(6S)-4-(4′-{[(1R)-1-{4-[(3-cyano-4-ethyl-1H-indol-7-yl)sulfamoyl]phenyl}ethyl]carbamoyl}-3′-methyl[1,1′-biphenyl]-4-yl)-2,3,9-trimethyl-6H-thieno[3,2-f][1,2,4]triazolo[4,3-a][1,4]diazepin-6-yl]acetate], in test [1], the half-inhibitory concentration (IC50) was found to be 0.32 nM. The DC50 in test [2] came to 0.21 nM.

For the molecule `CCc1ccc(NS(=O)(=O)c2ccc([C@@H](C)NC(=O)c3ccc(-c4ccc(C5=N[C@@H](CC(=O)OC)c6nnc(C)n6-c6sc(C)c(C)c65)cc4)cn3)cc2)c2[nH]cc(C#N)c12` [Example 109, methyl {(6S)-4-[4-(6-{[(1R)-1-{4-[(3-cyano-4-ethyl-1H-indol-7-yl)sulfamoyl]phenyl}ethyl]carbamoyl}pyridin-3-yl)phenyl]-2,3,9-trimethyl-6H-thieno[3,2-f][1,2,4]triazolo[4,3-a][1,4]diazepin-6-yl}acetate], it took 0.36 nM to reach half-maximal inhibition in test [1] (IC50). The molecule also gave a 50% degradation concentration (DC50) in test [2] of 0.082 nM.

Take `Cc1sc2c(c1C)C(c1ccc(-c3ccc(C(=O)NCc4ccc(S(=O)(=O)Nc5ccc(C)c6c(C#N)c[nH]c56)cc4)c(F)c3)cc1)=N[C@@H](CC(=O)OC(C)(C)C)c1nnc(C)n1-2` [Example Compound 139, t-butyl [(6S)-4-{4′-[({4-[(3-cyano-4-methyl-1H-indol-7-yl)sulfamoyl]phenyl}methyl)carbamoyl]-3′-fluoro[1,1′-biphenyl]-4-yl}-2,3,9-trimethyl-6H-thieno[3,2-f][1,2,4]triazolo[4,3-a][1,4]diazepin-6-yl]acetate]: half-maximal inhibition in test [1] (IC50) required 0.45 nM. Further, in test [2], the DC50 is 0.25 nM.
